Experimental data as given in patent publication US20250099448A1, “HETEROCYCLIC COMPOUNDS” (Hoffmann-La Roche Inc., priority 2022, published 2025).

Target: T1, MAGL protein (Homo sapiens, UniProt Q99685)
T1 sequence (Q99685 1-303): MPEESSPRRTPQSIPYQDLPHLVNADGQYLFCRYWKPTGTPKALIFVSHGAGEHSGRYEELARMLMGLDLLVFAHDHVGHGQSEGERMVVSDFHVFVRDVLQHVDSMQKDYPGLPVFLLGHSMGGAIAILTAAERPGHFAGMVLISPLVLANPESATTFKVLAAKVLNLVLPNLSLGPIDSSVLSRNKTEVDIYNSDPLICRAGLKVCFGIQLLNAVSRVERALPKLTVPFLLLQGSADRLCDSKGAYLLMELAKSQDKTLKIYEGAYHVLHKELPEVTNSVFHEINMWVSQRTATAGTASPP
Assay: 2-AG assay: MAGL inhibitory activity by hydrolysis of 2-arachidonoylglycerol to arachidonic acid, followed by mass spectrometry
Type: biochemical
Details: 8 μM 2-arachidonoylglycerol, 15 min preincubation, 30 min reaction at RT, RapidFire MS readout
Description: Compounds of formula (I) were profiled for MAGL inhibitory activity by determining the enzymatic activity by following the hydrolysis of the natural substrate 2-arachidonoylglycerol (2-AG) resulting in arachidonic acid, which can be followed by mass spectrometry. This assay is hereinafter abbreviated “2-AG assay”. The 2-AG assay was carried out in 384 well polypropylene assay plates. Compound dilutions were made in 100% DMSO in a polypropylene plate in 3-fold dilution steps to give a final concentration range in the assay from 12.5 μM to […]. Compound dilutions were added to MAGL protein in assay buffer (50 mM TRIS, 1 mM EDTA, 0.01% (v/v) Tween-20, 2.5% (v/v) DMSO). After shaking, the plate was incubated for 15 min at RT. To start the reaction, 2-arachidonoylglycerol in assay buffer was added. The final concentrations in the assay was […] for MAGL protein and 8 μM 2-arachidonoylglyerol. After shaking and 30 min incubation at RT, the reaction was quenched by the addition of two assay volumes of acetonitrile containing 4 μM of d8-arachidonic acid. The amount of arachidonic acid formed was traced by an online SPE system (Agilent Rapidfire) coupled to a triple quadrupole mass spectrometer. A C18 SPE cartridge (Agilent G9205A) was used in an acetonitrile/water liquid setup. The mass spectrometer was operated in negative electrospray mode following the mass transitions 303.1→259.1 for arachidonic acid and 311.1→267.0 for d8-arachidonic acid. The activity of the compounds was calculated based on the ratio of intensities [arachidonic acid/d8-arachidonic acid].

For `CS(=O)(=O)c1cc(OC(F)(F)F)ccc1OCC1CCN(C(=O)N2CC3(CC(c4nc(C5(O)CC5)n[nH]4)C3)C2)CC1` [Example 923], the IC50 was 731 nM.

Molecule `CS(=O)(=O)c1cc(Cl)ccc1CC1CC2(CCN(C(=O)N3CC4(CC(c5nnc(C6CC6)[nH]5)C4)C3)C2)C1` (stereo not drawn) [Example 414, [2-(4-chloro-2-mesyl-benzyl)-6-azaspiro[3.4]octan-6-yl]-[6-(5-cyclopropyl-4H-1,2,4-triazol-3-yl)-2-azaspiro[3.3]heptan-2-yl]methanone] has an IC50 of 38.1 nM.

Molecule `O=C(N1CC(c2ccc(C3(C(F)(F)F)CC3)nc2)C1)N1CC2(CC(c3nnc(C4(O)CC4)[nH]3)C2)C1` [compound 232] has an IC50 of 43.6 nM.

`NC(=O)c1cc(CC2CC3(C2)CN(C(=O)N2CC4(CC(c5nc(C6CC6)n[nH]5)C4)C2)C3)ccc1OC(F)(F)F` [compound 914] gave an IC50 of 0.27 nM.

With `O=C(N1CC(c2ccc(NC3CCS(=O)(=O)C3)nc2)C1)N1CC2(CC(c3nnc(C4CC4)[nH]3)C2)C1` (stereo not drawn) [compound 81] the IC50 was 28.2 nM.

Molecule `Cn1c(CN2CC3(C2)CN(C(=O)N2CC4(CC(c5nc(C6CC6)n[nH]5)C4)C2)C3)nnc1C(F)(F)F` [Example 958, [6-(3-cyclopropyl-1H-1,2,4-triazol-5-yl)-2-azaspiro[3.3]heptan-2-yl]-[6-[[4-methyl-5-(trifluoromethyl)-1,2,4-triazol-3-yl]methyl]-2,6-diazaspiro[3.3]heptan-2-yl]methanone] has an IC50 of 152 nM.

With `O=C(N1CC2(CC(c3nc(C(F)(F)F)n[nH]3)C2)C1)N1CC2(CN(Cc3ccc(S(=O)(=O)C(F)(F)F)cc3)C2)C1` [compound 850] the IC50 was 13.7 nM.

With `O=C(N1CC2(CC(Cc3cc(C(F)F)[nH]n3)C2)C1)N1CC2(CC(c3nc(C4CC4)n[nH]3)C2)C1` [compound 610] the IC50 was 0.4 nM.

With `O=C(N1CC(c2ccc(OC(F)(F)F)c(F)c2)C1)N1CC2(CC(c3nnc(C4(O)CC4)[nH]3)C2)C1` [compound 242] the IC50 was 2.23 nM.

`O=C(N1CC(c2ccc(C3(C(F)(F)F)CC3)cc2)C1)N1CC2(CC(c3nnc(C(O)C(F)(F)F)[nH]3)C2)C1` (stereo not drawn) [compound 228] gave an IC50 of 14.8 nM.

`O=C(N1CC2(CC(c3nnc(C4CC4)[nH]3)C2)C1)N1CC2(CN(Cc3cnc(C(F)(F)F)cn3)C2)C1` [compound 164] showed an IC50 of 18.3 nM.

`O=C(N1CC(C23CC(Oc4cnc(C(F)(F)F)cn4)(C2)C3)C1)N1CC2(CC(c3nc(C4(O)CC4)n[nH]3)C2)C1` [compound 552] gave an IC50 of 26.2 nM.

`O=C(N1CC(c2ccc(N3CCS(=O)(=O)CC3)nc2)C1)N1CC2(CC(c3nnc(C4CC4)[nH]3)C2)C1` [compound 80] showed an IC50 of 58.3 nM.

`CCc1ccc(C(=O)N2CCN(C(=O)N3CC4(CC(c5nnc(C6CC6)[nH]5)C4)C3)CC2)cc1` [compound 869] gave an IC50 of 115 nM.

`CS(=O)(=O)c1cc(F)cc(CC2CC3(C2)CN(C(=O)N2CC4(CC(c5nnc(C6(O)CC6)[nH]5)C4)C2)C3)c1` [compound 19] was tested, and the IC50 was 4.81 nM.

`O=C(N1CC(c2ccc([C@H]3C[C@@H](C(F)F)C3)cc2)C1)N1CC2(CC(c3nnc(C4CC4)[nH]3)C2)C1` (single isomer, unassigned) [Example 305, cis-[6-(5-Cyclopropyl-4H-1,2,4-triazol-3-yl)-2-azaspiro[3.3]heptan-2-yl]-[3-[4-[3-(difluoromethyl)cyclobutyl]phenyl]azetidin-1-yl]methanone] was tested, and the IC50 was 0.07 nM.

With `O=C(N1CC2(CC(Cc3ccc(OC(F)(F)F)nc3)C2)C1)N1CC2(CC(c3nc(C4(O)CC4)n[nH]3)C2)C1` [compound 710] the IC50 was 2.61 nM.

For `CS(=O)(=O)c1cnn(-c2ccc(C3CN(C(=O)N4CC5(CC(c6nnc(C7CC7)[nH]6)C5)C4)C3)cc2)c1` [Example 500, [6-(5-cyclopropyl-4H-1,2,4-triazol-3-yl)-2-azaspiro[3.3]heptan-2-yl]-[3-[4-(4-mesylpyrazol-1-yl)phenyl]azetidin-1-yl]methanone], the IC50 was 9.48 nM.

With `O=C(N1CC(C23CC(Nc4cnc(C(F)(F)F)cn4)(C2)C3)C1)N1CC2(CC(c3nc(C4(O)CC4)n[nH]3)C2)C1` [compound 593] the IC50 was 1.36 nM.

`N=S(=O)(c1cnn(CC2CC3(C2)CN(C(=O)N2CC4(CC(c5nc(C6CC6)n[nH]5)C4)C2)C3)c1)C(F)(F)F` (stereo not drawn) [compound 950] gave an IC50 of 3.03 nM.

Molecule `N#Cc1cc(CC2CC3(C2)CN(C(=O)N2CC4(CC(c5nnc(C6(O)CC6)[nH]5)C4)C2)C3)cnc1C(F)(F)F` [compound 606] has an IC50 of 5.17 nM.

`O=C(N1CC2(CC(c3nnc(C4(O)CC4)[nH]3)C2)C1)N1CC2(C1)CN(S(=O)(=O)c1ccc(C(F)(F)F)cc1)C2` [compound 104] showed an IC50 of 198 nM.

`O=C(N1CC2(CC(c3nnc(C4CC4)[nH]3)C2)C1)N1CC2(CN(Cc3cnc(C(F)(F)F)nc3)C2)C1` [compound 162] was tested, and the IC50 was 32.7 nM.

`N#Cc1ccc(CC2CC3(C2)CN(C(=O)N2CC4(CC(c5nc(C6(O)CC6)n[nH]5)C4)C2)C3)c(F)c1` [compound 752] gave an IC50 of 0.29 nM.

For `O=C(N1CC2(CCC(Cc3ccc(C(F)(F)F)nc3)CC2)C1)N1CC2(CC(c3nnc(C4CC4)[nH]3)C2)C1` [compound 140], the IC50 was 0.31 nM.

`O=C(N1CC2(CC(Cc3cc(C(F)(F)F)n(CC(F)(F)F)n3)C2)C1)N1CC2(CC(c3nc(C4CC4)n[nH]3)C2)C1` [compound 793] was tested, and the IC50 was 0.07 nM.

Molecule `O=C(N1CC(NCc2ccc(OC(F)(F)F)cc2F)C1)N1CC2(CC(c3nnc(C4CC4)[nH]3)C2)C1` [compound 189] has an IC50 of 38.6 nM.

For `CS(=O)(=O)c1cc(C(F)(F)F)ccc1COC1CCN(C(=O)N2CC3(CC(c4nc(C5CC5)n[nH]4)C3)C2)CC1` [Example 907, [6-(3-cyclopropyl-1H-1,2,4-triazol-5-yl)-2-azaspiro[3.3]heptan-2-yl]-[4-[2-mesyl-4-(trifluoromethyl)benzyl]oxypiperidino]methanone], the IC50 was 43.1 nM.

In the case of `O=C(N1CC2(CCC(Cc3cnc(C(F)(F)F)cn3)CC2)C1)N1CC2(CC(c3nnc(C4(O)CC4)[nH]3)C2)C1` [compound 137], the IC50 is reported as 6.79 nM.

Molecule `CCNC(=O)c1ccccc1-c1ccc(C2CN(C(=O)N3CC4(CC(c5nnc(C6CC6)[nH]5)C4)C3)C2)cc1` [Example 391, 2-[4-[1-[6-(5-cyclopropyl-4H-1,2,4-triazol-3-yl)-2-azaspiro[3.3]heptane-2-carbonyl]azetidin-3 yl]phenyl]-N-ethyl-benzamide] has an IC50 of 48.3 nM.

With `O=C(N1CC2(CC(c3nc(C4(O)CC4)n[nH]3)C2)C1)N1CC2(CCN(Cc3ccc(S(=O)(=O)C(F)(F)F)cc3)C2)C1` [compound 714] the IC50 was 30 nM.

For `O=C(N1CC(c2ccc(N3CC(C(F)(F)F)C3)cc2)C1)N1CC2(CC(c3nnc(C4CC4)[nH]3)C2)C1` [compound 261], the IC50 was 0.36 nM.

Work on `O=C(N1CC2(CC(Cc3ccc(S(=O)(=O)C(F)(F)F)cc3)C2)C1)N1CC2(CC(c3nc(C4CC4)n[nH]3)C2)C1` [compound 420] yielded an IC50 of 0.02 nM.

Work on `O=C(N1CC2(CC(c3nc(C4CC4)n[nH]3)C2)C1)N1CC2(CN(Cc3cc(C(F)(F)F)on3)C2)C1` [compound 609] yielded an IC50 of 8.32 nM.

Work on `CC(C)(C)c1noc(CN2CC3(C2)CN(C(=O)N2CC4(CC(c5nnc(C6CC6)[nH]5)C4)C2)C3)n1` [compound 886] yielded an IC50 of 6.38 nM.

In the case of `O=C(N1CC2(CCN(Cc3cc(C(F)(F)F)[nH]n3)CC2)C1)N1CC2(CC(c3nc(C4CC4)n[nH]3)C2)C1` [compound 525], the IC50 is reported as 7.08 nM.

Molecule `O=C(N1CC2(CC(Cc3cncc(F)c3)C2)C1)N1CC2(CC(c3nnc(C4CC4)[nH]3)C2)C1` [compound 45] has an IC50 of 2.37 nM.

`N#Cc1cc(CC2CC3(C2)CN(C(=O)N2CC4(CC(c5nc(C6CC(F)(F)C6)n[nH]5)C4)C2)C3)cc(C(F)(F)F)c1` [compound 579] gave an IC50 of 24 nM.

`CC(C)(C(=O)O)c1cccc(OC2CN(C(=O)N3CC4(CC(c5nnc(C6CC6)[nH]5)C4)C3)C2)c1` [Example 387, 2-[3-[1-[6-(5-cyclopropyl-4H-1,2,4-triazol-3-yl)-2-azaspiro[3.3]heptane-2-carbonyl]azetidin-3-yl]oxyphenyl]-2-methyl-propanoic Acid] showed an IC50 of 79.6 nM.

Molecule `O=C(N1CC(c2ccc(CC(F)(F)F)cc2)C1)N1CC2(CC(c3nnc(C4(O)CC4)[nH]3)C2)C1` [compound 244] has an IC50 of 7.96 nM.

With `O=C(N1CC(c2ccc(C3(C(F)(F)F)CC3)cc2)C1)N1CC2(CC(c3nnc(C4CC4)[nH]3)C2)C1` [compound 226] the IC50 was 0.11 nM.

`O=C(N1CC(c2ccc(Oc3ccccc3Cl)nc2)C1)N1CC2(CC(c3nnc(C4CC4)[nH]3)C2)C1` [compound 367] was tested, and the IC50 was 0.15 nM.

With `O=C(N1CC2(CC(CNC3CS(=O)(=O)C3)C2)C1)N1CC2(CC(c3nnc(C4CC4)[nH]3)C2)C1` [compound 364] the IC50 was 377 nM.

Molecule `N#Cc1cc(CC2CC3(C2)CN(C(=O)N2CC4(CC(c5nc(C6(O)CC6)n[nH]5)C4)C2)C3)cc(C(F)(F)F)c1` [compound 749] has an IC50 of 0.25 nM.

With `O=C(N1CC2(CCC(Cc3ccc(OC(F)F)nc3)CC2)C1)N1CC2(CC(c3nnc(C4(O)CC4)[nH]3)C2)C1` [compound 146] the IC50 was 9.79 nM.
